“And” between values parts separate entries of the source, which are not always exact repeats. Equal entries are not always repeated.
Legend:
α-amylase = target: T1, α-amylase (Homo sapiens, UniProt P0DUB6); assay: α-Amylase inhibition saliva screening (2-chloro-p-nitrophenol-maltotriose substrate, absorbance 405 nm); format: biochemical; settings: for Ave (α-amylase assay reading): average of four readings; for α-amylase assay single reading (absorbance at 405 nm): saliva, test compound prepared at 5,000 ppm, 37° C., replicate readings
T1 sequence (P0DUB6 16-511): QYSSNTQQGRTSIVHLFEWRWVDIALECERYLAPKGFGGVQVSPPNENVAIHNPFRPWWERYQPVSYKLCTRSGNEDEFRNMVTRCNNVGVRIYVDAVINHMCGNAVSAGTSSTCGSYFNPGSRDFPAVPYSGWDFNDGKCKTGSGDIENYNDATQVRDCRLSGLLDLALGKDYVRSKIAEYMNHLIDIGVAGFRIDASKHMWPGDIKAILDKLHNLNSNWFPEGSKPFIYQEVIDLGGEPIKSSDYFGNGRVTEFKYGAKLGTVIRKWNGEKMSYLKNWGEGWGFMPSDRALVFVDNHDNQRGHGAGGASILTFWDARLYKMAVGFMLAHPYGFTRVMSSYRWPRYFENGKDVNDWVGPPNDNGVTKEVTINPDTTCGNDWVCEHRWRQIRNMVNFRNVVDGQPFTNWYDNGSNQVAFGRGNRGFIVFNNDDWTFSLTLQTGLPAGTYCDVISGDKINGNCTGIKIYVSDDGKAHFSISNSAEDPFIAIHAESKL
Source text: Enzymatic activity of α-amylase on the substrate yields 2-chloro-p-nitrophenol, which can be measured spectrophotometrically at 405 nm. The amount of α-amylase activity present in the experimental sample is directly proportional to the increase in absorbance at 405 nm.

peroxidase = assay: Peroxidase assay in saliva (Amplex Red); format: biochemical; settings: single compounds at 500 ppm; pooled and unpooled saliva; 30 minutes; FIGS. 26-29
Experimental: To determine the effect of various GRAS compounds as inhibitors of peroxidase activity, a standard assay using Amplex® Red (Life Technologies), which releases a fluorescent oxidation product.
The test compounds, such as GRAS materials or cocktails of same, were prepared at a concentration of 500 ppm in distilled water. For the assay, 50 μl samples of test compounds were mixed with 20-30 μl of saliva (either “pooled” or “unpooled”) prior to the addition of Amplex® Red. Following the mixture of the test compounds with saliva, […] Amplex® Red/HRP working solution (See Protocol for Invitrogen Assay #A22188, which is incorporated herein in its entirety), which has a concentration of 100 μM of Amplex® Red, is added to the test compound/saliva mixture. […] Reactions were allowed to run for 30 minutes during these assays.

Aluminum sulfate hydrate [CDI-34]
Ave (α-amylase assay reading) (α-amylase; 0 min): 0.40 | α-amylase assay single reading (absorbance at 405 nm) (α-amylase; 0 min, sulfate hydrate): 0.40 (2×) and 0.36 and 0.45 | Ave (α-amylase assay reading) (α-amylase; 5 min): 0.50 | α-amylase assay single reading (absorbance at 405 nm) (α-amylase; 5 min, sulfate hydrate): 0.49 and 0.50 (2×) and 0.52 | Ave (α-amylase assay reading) (α-amylase; 15 min): 0.56 | α-amylase assay single reading (absorbance at 405 nm) (α-amylase; 15 min, sulfate hydrate): 0.53 and 0.61 and 0.54 and 0.56

Aluminum potassium sulfate dodecahydrate [CDI-42]
Ave (α-amylase assay reading) (α-amylase; 0 min): 0.92 | α-amylase assay single reading (absorbance at 405 nm) (α-amylase; 0 min): 0.80 and 1.13 and 0.90 and 0.84 | Ave (α-amylase assay reading) (α-amylase; 5 min): 1.85 | α-amylase assay single reading (absorbance at 405 nm) (α-amylase; 5 min): 1.65 and 2.15 and 1.80 and 1.81 | Ave (α-amylase assay reading) (α-amylase; 15 min): 2.29 | α-amylase assay single reading (absorbance at 405 nm) (α-amylase; 15 min): 2.37 and 2.38 and 2.25 and 2.17 | peroxidase inhibition (peroxidase): significant peroxidase inhibition capabilities

Cn1c(=O)c2c(ncn2C)n(C)c1=O [CDI #33, Caffeine]
peroxidase inhibition (peroxidase): significant peroxidase inhibition capabilities

COc1ccc(O)c(C(C)(C)C)c1 [CDI-039, 3-tert--butyl-hydroxyanisole]
peroxidase inhibition (peroxidase): significant peroxidase inhibition capabilities

From patent US20110195425A1, “SYSTEMS AND METHODS FOR DIAGNOSING PARASITE INFECTIONS” (priority 2010, published 2011)
